In ChEMBL document CHEMBL5233292, “Biscroyunoid A, an Anti-Hepatic Fibrotic 19-nor-Clerodane Diterpenoid Dimer with a C-16-C-12' Linkage from Croton yunnanensis” (J Nat Prod, 2023):
The source made the active and inactive calls.

What was measured:
LX-2 [1] = experiment: Anti-hepatic fibrosis activity in human LX2 cells assessed as inhibition of TGFbeta1-induced collagen I expression at 20 to 40 uM measured after 48 hrs by western blot analysis; type: functional, cell-based; conditions: dose 20-40 µM
LX-2 [2] = experiment: Anti-hepatic fibrosis activity in human LX2 cells assessed as inhibition of TGFbeta1-induced alpha-SMA expression at 20 to 40 uM measured after 48 hrs by western blot analysis; type: functional, cell-based; conditions: dose 20-40 µM
LX2 [3] = experiment: Inhibition of TGF-beta1/Smad2/3 signaling in TGF-beta1-stimulated human LX-2 cells assessed as reduction in Smad2 phosphorylation at 20 to 40 uM by western blot analysis; type: cell-based; conditions: dose 20-40 µM
LX2 [4] = experiment: Inhibition of TGF-beta1/Smad2/3 signaling in TGF-beta1-stimulated human LX-2 cells assessed as reduction in Smad2/3 translocation from cytoplasm to nucleus at 40 uM by DAPI staining based fluorescence analysis; type: cell-based
LX-2 [5] = experiment: Anti-hepatic fibrosis activity in human LX2 cells assessed as inhibition of TGFbeta1-induced fibronectin expression measured after 48 hrs by immunofluorescence analysis; type: functional, cell-based; conditions: dose 20-40 µM
[6] = Cytotoxicity against human LX2 cells at 20 to 40 uM; type: toxicity, cell-based; conditions: lx-2, 40 µM, dose 20-40 µM
LX2 [7] = experiment: Inhibition of TGF-beta1/Smad2/3 signaling in TGF-beta1-stimulated human LX-2 cells assessed as reduction in Smad3 phosphorylation at 20 to 40 uM by western blot analysis; type: cell-based; conditions: dose 20-40 µM

COC(=O)C1=CC[C@H]2[C@@]3(CC[C@@H](C)[C@]24C[C@@H](c2occc2[C@H]2C[C@@]56[C@H](O2)O[C@]2(CC[C@H]5C)C(C(=O)OC)=CCC[C@H]62)c2ccoc2[C@@H]4O3)C1
Non-Toxic: Activity [6]
active: Activity (LX-2 [1]) | Activity (LX-2 [2]) | inhibition (LX2 [3]) | inhibition (LX2 [4]) | Activity (LX-2 [5]) Dose-Dependent Effect | inhibition (LX2 [7])
